Data: US6660263B2, “Oocydin and methods of use for protection of plants from Oomyocyte pathogens” (HMV Corporation, priority 2000, dated 2003)
≈ marks a conversion by molar mass, not a printed value. Where a SMILES comes first, the peptide text is derived from it. Bridges are numbered along the chain shown (N, C = ends). [ ]: non-standard residue; d: D form. The star is where a group is joined. Tetradecanoyl(3R-OH) = CCCCCCCCCCC[C@@H](O)CC(=O)*; Asp(3S-OH) = N[C@H](C(=O)O)[C@H](O)C(=O)O; Thr(4-Cl) = N[C@H](C(=O)O)[C@H](O)CCl; aThr = C[C@H](O)[C@H](N)C(=O)O; dDab = NCC[C@@H](N)C(=O)O; Dab = NCC[C@H](N)C(=O)O; Dhb = C/C=C(\N)C(=O)O

Experiments:
Phytophthora parasitica = assay: MIC in PD broth, 24-well plate
Phytophthora cinnamomi = assay: MIC in PD broth, 24-well plate
Pythium ultimum = assay: MIC in PD broth, 24-well plate; type: cell-based
Phytophthora citrophora = assay: MIC in PD broth, 24-well plate; type: cell-based
Phytophthora spp. = assay: MIC in PD broth, 24-well plate; type: cell-based; details: the most sensitive Oomycetes
Geotrichum candidum = type: cell-based
Sclerotinia sclerotiorum = type: cell-based
Rhizoctonia solani = type: cell-based
Verticillum dahliae = type: cell-based
Alternaria tomato = type: cell-based
Aspergillus fumigatus = type: cell-based
[1] = test system: MCF-7 (breast cancer cell line); assay: Neutral red cytotoxicity assay; type: cell-based, human; details: 3 days of exposure, preliminary studies
Procedure: (§1) Oocydin A was tested also against human cancer cell lines BT-20, MCF 7(American Type Culture Collection, Bethesda, Md., USA) and compared with activity against a normal human mammary human cell line (cc2551 HMEC from Clonetics, San Diego, Calif., USA). These cells were exposed to serial dilutions of oocydin A. After 3 days of exposure, the cells were stained with neutral red and the absorbance measured at 540 nm. For non-adherent cells a modification of the staining protocol of Berent, S. L. et al., (1986) Nucleic Acid Res 14, 8997-9015 was used. The results were recorded as IC50 values.

[2] = test system: normal human mammary cell line (cc2551 HMEC); assay: Neutral red cytotoxicity assay; type: cell-based; details: 3 days of exposure, preliminary studies
Procedure: as §1

P. ultimum = assay: Plate bioassay of fractions on PDA; type: cell-based, Pythium ultimum; details: contents of the single HPLC peak (retention time 19.7 min) against P. ultimum
Procedure: Bioassays. A simple plate bioassay test was used to detect bioactivity of various fractions in the purification of oocydin. Aliquots (10-20 μl) of sample were placed on a PDA plate, dried by placement under a hood having positive airflow, and then inoculated with 0.5×0.5 cm plugs of agar containing P. ultimum. The agar plugs were placed in each of the quadrants of the plate and then incubated for 36-48 hr at 23 C. Antioomycetous activity was apparent as a zone of growth inhibition.

With `COCC(=O)N(c1c(C)cccc1C)C(C)C(=O)OC` (racemic) [Metalaxyl, N-(2,6-dimethylphenyl)-N-(methoxyacetyl)-DL-alanine methyl ester, reference compound] the MIC (Phytophthora parasitica; Phytophthora nicotianae, read-out: Metalaxyl MIC) was 0.06 µg/mL (≈ 0.215 µM) and the MIC (Phytophthora cinnamomi; Phytophthora cinnamomi, read-out: Metalaxyl MIC) was 0.06 µg/mL (≈ 0.215 µM).
In the case of `CC(=O)OC1CC(=O)O[C@H]2C[C@H](CC/C(Cl)=C\C/C=C\1C)O[C@H]2[C@@H](O)/C=C(\C)CC(=O)O` (stereo partly shown) [oocydin A], the “Oocydin MIC Test 1” value (Pythium ultimum; Test 1, no visible growth after 48 or 72 hr at 23° C.) is reported as 0.11 µg/mL, the “Oocydin MIC Test 2” value (Pythium ultimum; Test 2, no visible growth after 48 or 72 hr at 23° C.) is reported as 0.39 µg/mL and the “Minimum inhibitory concentration (MIC)” value (Phytophthora citrophora; P. citrophora) is reported as “circa 0.03 μg ml^−1”. The “Oocydin MIC Test 1” value (Phytophthora citrophora; Phytophthora citrophora, Test 1) was 0.03 µg/mL, the “Oocydin MIC Test 2” value (Phytophthora citrophora; Phytophthora citrophora, Test 2) was 0.02 µg/mL and the MIC (Phytophthora spp.) was “approximately 0.03 μg ml^−1”. For the same compound, the “activity on PDA plates” value (Geotrichum candidum) was “inactive”, the “activity on PDA plates” value (Sclerotinia sclerotiorum) was “only slight inhibition of growth” and the “activity on PDA plates” value (Rhizoctonia solani) was “only slight inhibition of growth”. For the same compound, the “activity in plate tests” value (Verticillum dahliae) was “no activity”, the “activity in plate tests” value (Alternaria tomato) was “no activity” and the effect on growth (Aspergillus fumigatus) was “no effect”. The IC50 [1] was 0.42 µg/mL (≈ 0.892 µM), the IC50 [2] was 0.6 µg/mL (≈ 1.27 µM) and the bioassay activity (P. ultimum) was “active”. For the same compound, the effect on growth (Candida albicans) was “no effect”, the effect on growth (Cryptococcus neoformans) was “no effect” and the effect on growth (Candida parapsilosis) was “no effect”. The effect on growth (Histoplasma capsulatum) was “no effect”, the “Minimum inhibitory concentration (MIC)” value (Phytophthora parasitica; Phytophthora parasitica) was “circa 0.03 μg ml^−1” and the “Oocydin MIC Test 1” value (Phytophthora parasitica; Phytophthora parasitica, Test 1) was 0.03 µg/mL. For the same compound, the “Oocydin MIC Test 2” value (Phytophthora parasitica; Phytophthora parasitica, Test 2) was 0.05 µg/mL, the “Minimum inhibitory concentration (MIC)” value (Phytophthora cinnamomi; P. cinnamomi) was “circa 0.03 μg ml^−1” and the “Oocydin MIC Test 1” value (Phytophthora cinnamomi; Phytophthora cinnamomi, Test 1) was 0.03 µg/mL. For the same compound, the “Oocydin MIC Test 2” value (Phytophthora cinnamomi; Phytophthora cinnamomi, Test 2) was 0.02 µg/mL.
In the case of `C/C=C1\NC(=O)[C@H]([C@H](C)O)NC(=O)[C@H](CCN)NC(=O)[C@H](CCCCN)NC(=O)[C@H](CC(=O)O)NC(=O)[C@@H](CCN)NC(=O)[C@@H](NC(=O)C[C@H](O)CCCCCCCCCCC)COC(=O)[C@H]([C@H](O)CCl)NC(=O)[C@H]([C@H](O)C(=O)O)NC1=O` [pseudomycin B, reference compound] ({Tetradecanoyl(3R-OH)}-S[dDab]DK[Dab][aThr][Dhb][Asp(3S-OH)][Thr(4-Cl)]; ester 1-C; N-terminus assumed), the MIC (Candida albicans) is reported as less than 1.0 µg/mL, the MIC (Cryptococcus neoformans) is reported as less than 1.0 µg/mL and the MIC (Candida parapsilosis) is reported as less than 1.0 µg/mL. The MIC (Histoplasma capsulatum) was less than 1.0 µg/mL.
